In patent publication US9199962B2, “Substituted azaheterocycles for the treatment of cancer” (Merck Patent GmbH, priority 2011, dated 2015) one finds IC50 data, which are given here for 38 compounds.

T1 sequence (Q05397 376-1052): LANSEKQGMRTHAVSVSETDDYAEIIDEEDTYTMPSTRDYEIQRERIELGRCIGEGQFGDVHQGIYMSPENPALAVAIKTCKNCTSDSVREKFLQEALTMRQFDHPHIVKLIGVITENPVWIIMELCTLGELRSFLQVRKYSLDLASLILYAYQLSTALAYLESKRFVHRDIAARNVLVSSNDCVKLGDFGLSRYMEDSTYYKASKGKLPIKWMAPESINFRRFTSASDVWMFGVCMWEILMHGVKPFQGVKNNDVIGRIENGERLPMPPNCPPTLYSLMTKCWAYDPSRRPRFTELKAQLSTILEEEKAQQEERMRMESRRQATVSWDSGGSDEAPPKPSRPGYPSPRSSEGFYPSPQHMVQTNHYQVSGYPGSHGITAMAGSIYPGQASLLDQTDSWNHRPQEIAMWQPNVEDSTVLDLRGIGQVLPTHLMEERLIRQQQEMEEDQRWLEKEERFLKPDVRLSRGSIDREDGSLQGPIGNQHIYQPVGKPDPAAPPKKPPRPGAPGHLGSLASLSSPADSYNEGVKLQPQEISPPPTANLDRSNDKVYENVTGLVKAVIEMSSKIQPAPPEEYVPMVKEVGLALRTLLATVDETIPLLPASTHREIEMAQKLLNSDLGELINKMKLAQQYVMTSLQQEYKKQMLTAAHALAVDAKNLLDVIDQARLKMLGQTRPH

The first test addresses T1, GST-FAK (N-terminal GST fusion with truncated human FAK (376-1052 (end) amino acids)) (Homo sapiens, UniProt Q05397).
T1 construct: truncated human FAK (376-1052 (end) amino acids)
The test can be described thus: Biochemical enzyme assay for FAK activity (Caliper LC3000 mobility shift). The note with it: Table 1; 100 uM ATP; read-out: FAK IC50. Summed up:
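Inhibitor dose series in DMSO were incubated 90 min at 25 °C with truncated GST-tagged human FAK (0.067 ng/µl) and FITC-labelled peptide substrate (1 µM), with ATP at 100 µM and FERM peptide at 1 mM (pH 7.5 HEPES). After EDTA quench, phosphorylated and unphosphorylated peptides were resolved electrophoretically. Percent conversion was fitted for IC50.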
Broadly, the IC50 is the midpoint of a concentration-inhibition curve. As to `O=C(c1cncc(-c2nccc(NCc3cccc(-n4cccn4)c3)n2)c1)N1CCOCC1` [Compound 34, Morpholin-4-yl-{5-[4-(3-pyrazol-1-yl-benzylamino)-pyrimidin-2-yl]-pyridin-3-yl}-methanone], the IC50 was > 10000 nM.
As for `COc1cncc(-c2nccc(NCc3ccc(Oc4ccc(F)cc4)cc3)n2)c1` [Compound 2, [4-(4-Fluoro-phenoxy)-benzyl]-[2-(5-methoxy-pyridin-3-yl)-pyrimidin-4-yl]-amine], the IC50 was > 10000 nM.
Same read-out and setting: then `CC1(C)Cc2cccc(CNc3ccnc(-c4cncc(C(F)(F)F)c4)n3)c2O1` [Compound 26, (2,2-Dimethyl-2,3-dihydro-benzofuran-7-ylmethyl)-[2-(5-trifluoromethyl-pyridin-3-yl)-pyrimidin-4-yl]-amine], with > 10000 nM.
Still for that read-out and setting: then `Clc1cncc(-c2nccc(NCc3cccc(Oc4cnccn4)c3)n2)c1` [Compound 19, [2-(5-Chloro-pyridin-3-yl)-pyrimidin-4-yl]-[3-(pyrazin-2-yloxy)-benzyl]-amine], with > 10000 nM.
`Fc1cncc(-c2nccc(NCc3ccc(N4CCOCC4)cc3)n2)c1` [Compound 10, [2-(5-Fluoro-pyridin-3-yl)-pyrimidin-4-yl]-(4-morpholin-4-yl-benzyl)-amine]: the IC50 is > 10000 nM.
Still for that read-out and setting: under `COc1cncc(-c2nccc(NCc3ccc(OC)c(F)c3F)n2)c1` [Compound 1, (2,3-Difluoro-4-methoxy-benzyl)-[2-(5-methoxy-pyridin-3-yl)-pyrimidin-4-yl]-amine] stands 1000 to 10000 nM; under `COc1cncc(-c2nccc(NCc3ccc(N4CCOCC4)cc3)n2)c1` [Compound 4, [2-(5-Methoxy-pyridin-3-yl)-pyrimidin-4-yl]-(4-morpholin-4-yl-benzyl)-amine], > 10000 nM.

Staying with this test, now noted: Table 2; 100 uM ATP; read-out: FAK IC50.
Regarding `CCc1noc(CCNC(=O)c2cc(NCc3ccc(F)cc3F)nc(-c3cncc(C(F)(F)F)c3)n2)n1` [Compound 74, 6-(2,4-Difluoro-benzylamino)-2-(5-trifluoromethyl-pyridin-3-yl)-pyrimidine-4-carboxylic acid [2-(3-ethyl-[1,2,4]oxadiazol-5-yl)-ethyl]-amide], the 50% inhibitory concentration (IC50) lay within 100 to 1000 nM.

The test is the same for the next values; noted with them: Table 3; 100 uM ATP; read-out: FAK IC50.
As to `Fc1ccccc1CNc1ccnc(-c2cccnc2)n1` [Compound 93, N-(2-Fluorobenzyl)-2-pyridin-3-ylpyrimidin-4-amine], the IC50 was 100 to 1000 nM.
On the same count and under the same terms, then `Cc1ccc(CNc2ccnc(-c3cccnc3N)n2)c(F)c1` [Compound 101, 2-(2-Aminopyridin-3-yl)-N-(2-fluoro-4-methylbenzyl)pyrimidin-4-amine], with 1000 to 10000 nM; and `Cc1ccc(CNc2ccnc(-c3cccnc3N)n2)cc1` [Compound 92, 2-(2-Aminopyridin-3-yl)-N-(4-methylbenzyl)pyrimidin-4-amine], with > 10000 nM.
On the same count and under the same terms, under `Nc1ncccc1-c1nccc(NCc2cccnc2)n1` [Compound 121, 2-(2-Aminopyridin-3-yl)-N-(pyridin-3-ylmethyl)pyrimidin-4-amine] stands > 10000 nM; under `Nc1ncccc1-c1nccc(NCc2ccc(F)cc2)n1` [Compound 80, 2-(2-Aminopyridin-3-yl)-N-(4-fluorobenzyl)pyrimidin-4-amine], 1000 to 10000 nM.
Same read-out and setting: then `Nc1ncccc1-c1nccc(NCc2cc(F)ccc2C(F)(F)F)n1` [Compound 102, 2-(2-Aminopyridin-3-yl)-N-[5-fluoro-2-(trifluoromethyl)benzyl]pyrimidin-4-amine], with 1000 to 10000 nM.
Consider `Nc1ncccc1-c1nccc(NCc2cccc3ccnn23)n1` [Compound 135, 2-(2-Aminopyridin-3-yl)-N-(pyrazolo[1,5-a]pyridin-7-ylmethyl)pyrimidin-4-amine], for which the IC50 was > 10000 nM.
Same read-out and setting: under `CS(=O)(=O)c1ccccc1CNc1ccnc(-c2cccnc2N)n1` [Compound 87, 2-(2-Aminopyridin-3-yl)-N-[2-(methylsulfonyl)benzyl]pyrimidin-4-amine] stands 1000 to 10000 nM; under `CNCC(Nc1ccnc(-c2cccnc2)n1)c1ccccc1` (centres unmarked) [Compound 143, N2-Methyl-1-phenyl-N1-(2-pyridin-3-ylpyrimidin-4-yl)ethane-1,2-diamine], > 10000 nM.

Still in this test, the particulars now being: Table 5; 100 uM ATP; read-out: FAK IC50.
Turning to `COc1cncc(-c2nccc(NCc3ncccc3F)n2)c1` [Compound 214, (3-Fluoro-pyridin-2-ylmethyl)-[2-(5-methoxy-pyridin-3-yl)-pyrimidin-4-yl]-amine], the 50% inhibitory concentration (IC50) fell in the range of 100 to 1000 nM.
The same measure, in the same setting: under `O=C(Nc1cccnc1)c1cc(NCc2ccc(F)cc2F)nc(-c2cncc(C(F)(F)F)c2)n1` [Compound 261, 6-(2,4-Difluoro-benzylamino)-2-(5-trifluoromethyl-pyridin-3-yl)-pyrimidine-4-carboxylic acid pyridin-3-ylamide] stands 100 to 1000 nM; under `COc1cncc(-c2nccc(NCCc3ccc(F)cc3)n2)c1` [Compound 192, [2-(4-Fluoro-phenyl)-ethyl]-[2-(5-methoxy-pyridin-3-yl)-pyrimidin-4-yl]-amine], 1000 to 10000 nM.
For `COc1cncc(-c2nccc(NCc3csc(-c4ccccc4)n3)n2)c1` [Compound 221, [2-(5-Methoxy-pyridin-3-yl)-pyrimidin-4-yl]-(2-phenyl-thiazol-4-ylmethyl)-amine], the IC50 is > 10000 nM.
On the same count and under the same terms, under `FC(F)(F)c1cncc(-c2nccc(Nc3cn[nH]c3)n2)c1` [Compound 239, (1H-Pyrazol-4-yl)-[2-(5-trifluoromethyl-pyridin-3-yl)-pyrimidin-4-yl]-amine] stands 1000 to 10000 nM; under `COc1cncc(-c2nccc(NCc3cccnc3)n2)c1` [Compound 229, [2-(5-Methoxy-pyridin-3-yl)-pyrimidin-4-yl]-pyridin-3-ylmethyl-amine], 1000 to 10000 nM; under `N#Cc1cncc(-c2nccc(NCc3ncccc3F)n2)c1` [Compound 213, 5-{4-[(3-Fluoro-pyridin-2-ylmethyl)-amino]-pyrimidin-2-yl}-nicotinonitrile], 1000 to 10000 nM.
Still for that read-out and setting: under `COc1cncc(-c2nccc(NCc3cc(F)c(F)cc3F)n2)c1` [Compound 224, [2-(5-Methoxy-pyridin-3-yl)-pyrimidin-4-yl]-(2,4,5-trifluoro-benzyl)-amine] stands 100 to 1000 nM.
On the same count and under the same terms, then `COc1cc(NC(=O)c2cc(NCc3ccc(F)cc3F)nc(-c3cncc(C(F)(F)F)c3)n2)ccn1` [Compound 232, 6-(2,4-Difluoro-benzylamino)-2-(5-trifluoromethyl-pyridin-3-yl)-pyrimidine-4-carboxylic acid (2-methoxy-pyridin-4-yl)-amide], with 1000 to 10000 nM; and `Fc1ccc(CCNc2ccnc(-c3cncc(C(F)(F)F)c3)n2)cc1` [Compound 195, [2-(4-Fluoro-phenyl)-ethyl]-[2-(5-trifluoromethyl-pyridin-3-yl)-pyrimidin-4-yl]-amine], with 100 to 1000 nM.
On to `Cc1cc(F)ncc1-c1nccc(NCc2ccccc2F)n1` [Compound 206, (2-Fluoro-benzyl)-[2-(6-fluoro-4-methyl-pyridin-3-yl)-pyrimidin-4-yl]-amine], for which the IC50 was > 10000 nM.
The same measure, in the same setting: then `CN1CCN(C(=O)c2cc(NCc3ccc(F)cc3F)nc(-c3cncc(C(F)(F)F)c3)n2)CC1` [Compound 259, [6-(2,4-Difluoro-benzylamino)-2-(5-trifluoromethyl-pyridin-3-yl)-pyrimidin-4-yl]-(4-methyl-piperazin-1-yl)-methanone], with 100 to 1000 nM.
`CS(=O)(=O)Nc1cccc(-c2nc(NCc3ccc(F)cc3F)c3nc[nH]c3n2)c1` [Compound 236, N-{3-[6-(2,4-Difluoro-benzylamino)-9H-purin-2-yl]-phenyl}-methanesulfonamide]: the IC50 was > 10000 nM.
Same read-out and setting: then `O=C(c1cc(NCc2ccc(F)cc2F)nc(-c2cncc(C(F)(F)F)c2)n1)N1CCOCC1` [Compound 260, [6-(2,4-Difluoro-benzylamino)-2-(5-trifluoromethyl-pyridin-3-yl)-pyrimidin-4-yl]-morpholin-4-yl-methanone], with < 100 nM.
The same measure, in the same setting: under `Fc1ccc(CNc2cc(-c3cncc(C(F)(F)F)c3)ncn2)c(C(F)(F)F)c1` [Compound 252, (4-Fluoro-2-trifluoromethyl-benzyl)-[6-(5-trifluoromethyl-pyridin-3-yl)-pyrimidin-4-yl]-amine] stands 1000 to 10000 nM; under `CS(=O)(=O)Nc1cccc(-c2nc(NCc3ccc(F)cc3F)c3ncn(C4CCCCO4)c3n2)c1` (centres unmarked) [Compound 242, N-{3-[6-(2,4-Difluoro-benzylamino)-9-(tetrahydro-pyran-2-yl)-9H-purin-2-yl]-phenyl}-methanesulfonamide], > 10000 nM.
For `N#Cc1cncc(-c2nccc(NCc3ccccn3)n2)c1` [Compound 220, 5-{4-[(Pyridin-2-ylmethyl)-amino]-pyrimidin-2-yl}-nicotinonitrile], the IC50 was in the range of 1000 to 10000 nM.
The same measure, in the same setting: then `CNC(=O)c1ccccc1CNc1ccnc(-c2cncc(C(F)(F)F)c2)n1` [Compound 234, N-Methyl-2-{[2-(5-trifluoromethyl-pyridin-3-yl)-pyrimidin-4-ylamino]-methyl}-benzamide], with 1000 to 10000 nM; and `FC(F)(F)c1cncc(-c2nccc(NCc3cccnc3)n2)c1` [Compound 238, Pyridin-3-ylmethyl-[2-(5-trifluoromethyl-pyridin-3-yl)-pyrimidin-4-yl]-amine], with 100 to 1000 nM.
The same measure, in the same setting: then `Fc1cnc(CNc2ccnc(-c3cncc(C(F)(F)F)c3)n2)c(F)c1` [Compound 209, (3,5-Difluoro-pyridin-2-ylmethyl)-[2-(5-trifluoromethyl-pyridin-3-yl)-pyrimidin-4-yl]-amine], with < 100 nM; and `COc1cncc(-c2nccc(NCCc3ccccc3OC)n2)c1` [Compound 202, [2-(2-Methoxy-phenyl)-ethyl]-[2-(5-methoxy-pyridin-3-yl)-pyrimidin-4-yl]-amine], with 1000 to 10000 nM.
